Test [1] deals with T1, bovine retina PDE6 (Bos taurus, UniProt P11541+P23439).
T1 construct: bovine retina PDE6; from tissue; host or cells: bovine retina
T1 sequence (P11541 2-856 limits assumed): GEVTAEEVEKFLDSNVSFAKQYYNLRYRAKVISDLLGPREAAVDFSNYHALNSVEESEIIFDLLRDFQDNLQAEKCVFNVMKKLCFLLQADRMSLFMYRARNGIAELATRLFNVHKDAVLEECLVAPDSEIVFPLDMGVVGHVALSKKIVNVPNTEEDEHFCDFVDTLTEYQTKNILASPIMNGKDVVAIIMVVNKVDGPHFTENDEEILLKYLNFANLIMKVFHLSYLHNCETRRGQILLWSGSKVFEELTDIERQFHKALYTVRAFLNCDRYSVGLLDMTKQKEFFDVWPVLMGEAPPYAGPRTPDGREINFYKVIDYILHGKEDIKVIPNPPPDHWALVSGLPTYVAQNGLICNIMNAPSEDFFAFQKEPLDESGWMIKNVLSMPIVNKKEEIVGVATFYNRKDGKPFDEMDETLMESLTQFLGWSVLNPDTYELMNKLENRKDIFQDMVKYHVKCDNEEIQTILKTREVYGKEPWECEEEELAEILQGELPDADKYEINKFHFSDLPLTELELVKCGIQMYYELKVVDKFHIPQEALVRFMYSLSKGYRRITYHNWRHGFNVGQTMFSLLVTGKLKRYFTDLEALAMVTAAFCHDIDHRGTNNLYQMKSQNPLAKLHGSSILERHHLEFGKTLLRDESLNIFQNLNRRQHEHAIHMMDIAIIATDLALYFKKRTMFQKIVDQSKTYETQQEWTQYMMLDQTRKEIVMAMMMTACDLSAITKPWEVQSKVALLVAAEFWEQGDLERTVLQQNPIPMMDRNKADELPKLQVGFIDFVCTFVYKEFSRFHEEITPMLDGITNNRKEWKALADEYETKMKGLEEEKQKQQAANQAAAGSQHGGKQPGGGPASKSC
T1 sequence (P23439 2-850 limits assumed): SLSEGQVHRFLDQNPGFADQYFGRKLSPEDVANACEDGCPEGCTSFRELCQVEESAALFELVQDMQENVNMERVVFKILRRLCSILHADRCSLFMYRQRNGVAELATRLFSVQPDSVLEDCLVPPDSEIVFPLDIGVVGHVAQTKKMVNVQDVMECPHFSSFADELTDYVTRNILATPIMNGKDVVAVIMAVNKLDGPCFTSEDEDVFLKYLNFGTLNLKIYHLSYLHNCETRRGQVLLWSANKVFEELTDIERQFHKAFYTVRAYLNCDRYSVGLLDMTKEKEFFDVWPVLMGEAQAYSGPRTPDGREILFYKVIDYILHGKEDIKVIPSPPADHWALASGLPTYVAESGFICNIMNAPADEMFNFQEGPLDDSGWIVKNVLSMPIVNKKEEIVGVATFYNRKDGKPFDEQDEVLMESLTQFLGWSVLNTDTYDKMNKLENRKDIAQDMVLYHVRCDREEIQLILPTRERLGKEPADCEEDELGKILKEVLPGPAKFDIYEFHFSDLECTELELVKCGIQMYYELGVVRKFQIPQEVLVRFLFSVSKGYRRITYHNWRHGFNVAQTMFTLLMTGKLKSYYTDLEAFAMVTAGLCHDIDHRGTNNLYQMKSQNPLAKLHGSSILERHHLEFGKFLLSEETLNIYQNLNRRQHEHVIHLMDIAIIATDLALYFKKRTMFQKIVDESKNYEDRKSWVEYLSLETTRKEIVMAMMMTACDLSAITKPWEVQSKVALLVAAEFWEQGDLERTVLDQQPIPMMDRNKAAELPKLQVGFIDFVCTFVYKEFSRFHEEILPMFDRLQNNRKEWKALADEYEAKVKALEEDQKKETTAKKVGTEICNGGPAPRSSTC
The test is described as follows: PDE selectivity, bovine retina PDE6. Type of test: biochemical. Here is the method: One unit of enzyme will hydrolyze […] of 3′,5′-cAMP to 5′-AMP per min at pH 7.5 at 30° C. […] 99 μl of diluted enzyme solution is added into each well in a flat bottom 96-well polystyrene plate to which 1 μι of test compound dissolved in 100% DMSO is added.

Test [2] deals with C57Bl/6 mice. Kind of test: Chronic unpredictable stress (CUS) model, inflammatory markers and depression-like behaviors. It is filed as in vivo, mouse. The conditions noted are these: 10 mg/kg i.p. daily. From the text:
This experiment compares the impact of chronic stress on the brain cytokine/chemokine profile in wild type mice vs PDE1B conditional knockout mice.
PDE1B conditional knockout mice are described in Siuciak J A, et al. “Behavioral and neurochemical characterization of mice deficient in the phosphodiesterase-1B (PDE1B) enzyme.” Neuropharmacology. 2007 July; 53(1):113-24. Protocols for CUS and other models of chronic stress are described in Monteiro, et al., “An Efficient Chronic Unpredictable Stress Protocol to Induce Stress-Related Responses in C57BL/6 Mice,” Front Psychiatry. 2015; 6: 6 and in Mann et al., “Chronic social defeat, but not restrain stress, alters bladder function in mice” Physiol. Behav. 2015; Oct. 15; 150: 83-92.
Generally, wild type (control) mice and PDE1B conditional knockout mice, as appropriate, are exposed to the chronic stress using restraint stress in shallow water model (RSSW) as described by Mann et al (2015), above. […] Control mice for these experiments are also maintained in single housing cages. In accordance the stress protocol, the mice are monitored for the depression-like behavior profile. Mice are then sacrificed and tissue samples are collected. […] Brain tissue and serum is analyzed for a panel of markers, including pro-inflammatory and anti-inflammatory cytokines and chemokines.
C57Bl/6 mice are subjected to the CUS protocol (14d, as described) or sham treatment, evaluated for depression-like behaviors at a specified time points, and sacrificed for collection of blood (serum preparation) and brain collection. Serum is analyzed for corticosterone (CORT) levels and other inflammatory markers. The brain is analyzed for a panel of inflammatory markers by qPCR (mRNA) and MSD (protein).
Mice are evaluated for depression-like behaviors at a specified time point to test the impact of the CUS protocol and of the PDE1 inhibitor treatment on the depression-like phenotype. […] Serum is analyzed for CORT levels and other inflammatory markers. Brain samples are analyzed for a panel for a panel of inflammatory markers by qPCR (mRNA) and MSD (protein). […]

These results are taken from patent US11291666B2, “Uses” (INTRA-CELLULAR THERAPIES, INC., priority 2016, dated 2022).

Usually IC50 stands for the concentration at which inhibition is half-maximal. Compound `CN1C(=O)c2c(nn(Cc3ccc(-c4cccc(F)n4)cc3)c2Nc2ccccc2)N2C1=N[C@@H]1CCC[C@@H]12` [Compound 214] registered an IC50 in test [1] of 324 nM. In test [2] (PDE1B KO mice, CUS), the “effect on tissue and serum markers and behaviors in PDE1B KO mice” value is “no significant effect”. Further, in test [2] (normal C57Bl/6 mice, CUS 14d), the “CUS-induced CNS and serum markers (proinflammatory)” value is recorded as “significantly suppresses”; the “expression of depression-like behaviors” value is on record as “significantly suppresses”.
